Experimental data taken from patent US9902964B2, “Growth arrested cells useful for producing compounds” (priority 2014, dated 2018).

How the values were obtained:
Type in all cases: cell-based, Escherichia coli
[1] = tested on: persister cells of MG1655; experiment: Antibiotic resistance of naturally occurring persister cells isolated by ofloxacin treatment (CFU count); settings: chloramphenicol 30 μg/ml, ampicillin 100 μg/ml, 4 h at 37° C.; P=0.3, unpaired t test
Experimental: Persister cells were prepared in triplicate by ofloxacin treatment of stationary-phase cultures based on a previously described protocol (32). Overnight cultures of MG1655 cells grown in LB medium for 20 h were treated with ofloxacin for 3 h at 37° C., after which cells were pelleted, washed with fresh LB medium, pelleted again, and resuspended in antibiotic-free LB medium. After resuspension, chloramphenicol (30 μg/ml) and ampicillin (100 μg/ml) were added singly or in combination, and cells were incubated at 37° C. with shaking for 4 h. Samples were removed, pelleted once, washed with LB medium, resuspended, and serially diluted. A 10-μl volume of the serial dilutions was spot plated on an LB agar plate, which was incubated at 37° C. overnight. Colonies were counted the following day.

[2] = tested on: HipA-arrested cells (MG1655/pHipA); experiment: β-Lactam susceptibility of HipA-arrested cells (optical density, lysis)
Experimental: Biological triplicates of MG1655/pHipA cells were inoculated into 30 ml of MOPS-M9 medium and grown at 37° C. until an OD600 of 0.5 was reached. aTc was added to reach 50 ng/ml, and the cultures were split into two 12-ml subcultures. At 2.5 h later, carbenicillin (100 μg/ml) was added to one subculture and optical densities were measured. For comparison of the levels of β-lactam tolerance of WT and ΔrelA cultures expressing HipA, biological triplicates of the WT/pHipA and ΔrelA/pHipA strains were inoculated into 5 ml of MOPS-M9 medium and grown at 37° C. HipA expression was induced with 50 ng/ml aTc when the OD600 reached ˜0.3. Ampicillin was added to reach a final concentration of 100 μg/ml 1.5 h later, and optical densities were monitored.

MG1655/pHipA cells = experiment: Measurement of DNA and RNA concentrations in HipA-arrested cells; settings: 30 μg/ml chloramphenicol added 1 h after HipA induction
Experimental: Cultures of MG1655/pHipA cells were inoculated into 40 ml of MOPS-M9 medium in 250-ml unbaffled Erlenmeyer flasks and incubated with shaking at 37° C. When the OD600 reached ˜0.3, aTc was added to reach 50 ng/ml. After 1 h of HipA induction, a sample was removed for DNA or RNA extraction, the cultures were split into two 15-ml cultures, and 30 μg/ml chloramphenicol was added to one of the cultures. For comparison of DNA and RNA synthesis results in WT and ΔrelA strains expressing HipA, biological triplicates of the WT/pHipA and ΔrelA/pHipA strains were grown in MOPS-M9 medium at 37° C. to an OD600 of 0.2 to 0.4, at which point HipA expression was induced by addition of aTc to 50 ng/ml. Samples were processed per a previously published protocol (27) using Picogreen (Invitrogen) for DNA quantification. RNA was quantified by measurement of fluorescence using the Quant-It assay (catalog no. Q33140; Invitrogen) following the manufacturer's instructions. Fluorescence was measured using a Spectromax M2 reader.

[3] = tested on: ppGpp concentration within HipA-arrested cells; experiment: ppGpp measurements performed with HPLC in HipA-arrested cells; settings: chloramphenicol treatment, within 15 min
Source text: ppGpp and nucleotides were extracted from cells grown on agar-supported nylon filters, following a protocol inspired by the rapid-quenching and metabolite extraction approach described in reference 25. We adopted this technique to avoid perturbing ppGpp levels with lengthy cell harvesting and extraction procedures, as the enzymes that generate and degrade ppGpp are known to respond rapidly to external conditions (26). Briefly, cells grown in liquid medium to an optical density at 600 nm (OD600) of ˜0.1 were transferred to nylon filters and adhered to solid agar plates containing our modified MOPS-M9 medium. […] Concentrations of ppGpp and GTP were measured using anion-exchange chromatography and a Partisil 5 Sax Rac II column (catalog no. 422-227; Hichrom Limited), with a silica Nova-Pak guard column (catalog no. WAT046845; Whatman) per a protocol described previously (26) and modified for brevity. […] The column temperature was maintained at 50° C., and absorbance was monitored at 254 nm. […]
Cultures of MG1655/pHipA cells were inoculated into 40 ml of MOPS-M9 medium in 250-ml unbaffled Erlenmeyer flasks and incubated with shaking at 37° C. […] Samples were processed per a previously published protocol (27) using Picogreen (Invitrogen) for DNA quantification. […] Fluorescence was measured using a Spectromax M2 reader.

CC1(C)S[C@@H]2[C@H](NC(=O)[C@H](N)c3ccccc3)C(=O)N2[C@H]1C(=O)O [ampicillin]
reduction in CFU of isolated persisters [1]: 41%±13% | ampicillin resistance of ΔrelA strain expressing HipA ([2]; ampicillin 100 μg/ml, ΔrelA/pHipA strain, FIG. 9D): did not confer ampicillin resistance

CC1(C)S[C@@H]2[C@H](NC(=O)C(C(=O)O)c3ccccc3)C(=O)N2[C@H]1C(=O)O (stereo partly drawn) [carbenicillin]
lysis of HipA-arrested WT cells ([2]; carbenicillin 100 μg/ml, HipA induced with 50 ng/ml aTc, FIG. 9C): did not induce lysis

O=C(N[C@H](CO)[C@H](O)c1ccc([N+](=O)[O-])cc1)C(Cl)Cl [chloramphenicol]
inhibition of DNA synthesis in HipA-arrested cells (MG1655/pHipA cells; FIG. 9A): relieved inhibition | inhibition of RNA synthesis in HipA-arrested cells (MG1655/pHipA cells; FIG. 9B): relieved inhibition | decrease of ppGpp concentration within HipA-arrested cells [3]: 60% (±20%)
